The subject of the assay is IDDM associated autoantibodies in sera. Put plainly: ELISA of sera on plate-bound human GAD65 peptides. In kind it is binding. The conditions noted are these: for controls whose sera recognized the peptide: 13 control sera; for number of IDDM (at risk, pre-IDDM, at onset) patients positive (X) for the peptide (unlabelled sum line): IDDM sera of Table 11; for patients whose sera recognized the peptide: patients previously shown to be 64K positive. As for the experimental part: Patient sera and most control sera were those used in a previous study (Kaufman, et al., J. Clin. Investigation, supra) All samples were coded and tested in a blind manner. Peptides were synthesized using an automatic instrument (Applied Biosystems, Foster City, Calif.) and standard conditions. Peptides were dissolved in 60 mM sodium bicarbonate buffer (pH 9.6) at 20 ug/ml and 100 ul of each was added to duplicated wells of a 96 well Nunc-Immuno Plate. Peptides were allowed to bind at 4° C. overnight. The plates were then washed three times with PBS+0.1% Tween 20 (wash buffer), after which the plates were pre-absorbed with 3% BSA in sodium bicarbonate buffer for 0.5 hours at 37° C., or at room temperature overnight. The plates were then washed 5 times with the above wash buffer. 100 ul of serum at a 1/300 dilution in PBS+0.1% Tween 20 and 1% BSA was added to each well and antibodies were allowed to bind for 1 hour at 37° C. The plates were washed 5 times with wash buffer. 100 ul of a 1/600 dilution of HRP-goat anti-human IgG (BRL, Gaithersberg, Md.) was added to each well and allowed to bind for 1 hour at 37° C. The plates were then washed 7 times and 100 ul of substrate buffer was added to each well for 30 minutes at room temperature. The color development was measured at 410 nm using an ELISA plate reader (ICN, Biomedicals, Costa Mesa, Calif.). Positive sera were defined as: OD410 of the sample/negative control ≧3.0.

The mark [1] stands for this setting: IDDM At Onset serum 048, 1/300 dilution.
Setting [2] is: IDDM At Onset serum 291, 1/300 dilution.
Setting [3] is: IDDM At Onset serum 705, 1/300 dilution.
Setting [4] is: IDDM At Onset serum S.H., 1/300 dilution.
The mark [5] stands for this setting: IDDM At Risk serum 052, 1/300 dilution.
The mark [6] stands for this setting: IDDM At Risk serum L.I., 1/300 dilution.
The mark [7] stands for this setting: Pre-IDDM serum 723, 1/300 dilution.
Where [8] appears, read: control serum 5620, 1/300 dilution.
Setting [9] is: IDDM At Risk serum 356, 1/300 dilution.
Setting [10] is: Pre-IDDM serum J.A., 1/300 dilution.
Setting [11] is: Pre-IDDM serum J.B. (2), 1/300 dilution.
Where [12] appears, read: Pre-IDDM serum P.T. (1), 1/300 dilution.
Setting [13] is: Pre-IDDM serum P.T. (2), 1/300 dilution.
[14] abbreviates: Pre-IDDM serum R.S. (2), 1/300 dilution.
Setting [15] is: control serum S.M., 1/300 dilution.

The record followed here is patent US8926966B1 (Regents of the University of California, priority 1990, dated 2015).

Turning to AALGIGTDSVILIKCDERGK [Peptide 20], the “controls whose sera recognized the peptide” value was “none”; the “number of IDDM (at risk, pre-IDDM, at onset) patients positive (X) for the peptide (unlabelled sum line)” value (shortened to “number of IDDM”) is 7; the “patients whose sera recognized the peptide” value was 6/8. Moreover, the “immunoreactivity of serum with GAD65 peptide” value (“immunoreactivity of serum” below) under setting [1] is given as “X (X = positive for immunoreactivity as defined by 00/background^3.0)”. Also, under setting [2], the “immunoreactivity of serum” value was “X (X = positive for immunoreactivity as defined by 00/background^3.0)”. The “immunoreactivity of serum” value under setting [3] is “X (X = positive for immunoreactivity as defined by 00/background^3.0)”. Also, under setting [4], the “immunoreactivity of serum” value is “X (X = positive for immunoreactivity as defined by 00/background^3.0)”. In addition, the “immunoreactivity of serum” value under setting [5] is listed as “X (X = positive for immunoreactivity as defined by 00/background^3.0)”. For the same sequence, the “immunoreactivity of serum” value under setting [6] is reported as “b (b = borderline response (00/background ?2.5-2.9).)”. Moreover, the “immunoreactivity of serum” value under setting [7] was “X (X = positive for immunoreactivity as defined by 00/background^3.0)”.

AFTSEHSHFSLKKGAAALGI [Peptide 19]: the “number of IDDM” value is 1. Besides, the “immunoreactivity of serum” value under setting [5] is given as “X (X = positive for immunoreactivity as defined by 00/background^3.0)”.

On to ATHQDIDFLIEEIERLGQDL [Peptide 38], for which the “number of IDDM” value was found to be 1. In addition, under setting [1], the “immunoreactivity of serum” value is recorded as “X (X = positive for immunoreactivity as defined by 00/background^3.0)”. Moreover, under setting [4], the “immunoreactivity of serum” value is recorded as “b (b = borderline response (00/background ?2.5-2.9).)”. The “immunoreactivity of serum” value under setting [5] is listed as “b (b = borderline response (00/background ?2.5-2.9).)”.

In the case of CGRHVDVFKLWLMWRAKGTTG [Peptide 30], the “immunoreactivity of serum” value under setting [8] is recorded as “b (b = borderline response (00/background ?2.5-2.9).)”.

On to DERGKMIPSDLERRILEAKQ [Peptide 21], for which the “controls whose sera recognized the peptide” value is “none”; the “number of IDDM” value worked out at 7; the “patients whose sera recognized the peptide” value was 6/8. The “immunoreactivity of serum” value under setting [1] is “X (X = positive for immunoreactivity as defined by 00/background^3.0)”. Moreover, the “immunoreactivity of serum” value under setting [2] is “X (X = positive for immunoreactivity as defined by 00/background^3.0)”. Further, the “immunoreactivity of serum” value under setting [3] is on record as “X (X = positive for immunoreactivity as defined by 00/background^3.0)”. Also, under setting [4], the “immunoreactivity of serum” value is “X (X = positive for immunoreactivity as defined by 00/background^3.0)”. Also, under setting [9], the “immunoreactivity of serum” value is listed as “X (X = positive for immunoreactivity as defined by 00/background^3.0)”. Also, the “immunoreactivity of serum” value under setting [7] is “X (X = positive for immunoreactivity as defined by 00/background^3.0)”. Under setting [10], the “immunoreactivity of serum” value is on record as “X (X = positive for immunoreactivity as defined by 00/background^3.0)”. Further, the “immunoreactivity of serum” value under setting [11] is listed as “b (b = borderline response (00/background ?2.5-2.9).)”. In addition, under setting [12], the “immunoreactivity of serum” value was “X (X = positive for immunoreactivity as defined by 00/background^3.0)”. In addition, under setting [13], the “immunoreactivity of serum” value is reported as “X (X = positive for immunoreactivity as defined by 00/background^3.0)”. In addition, the “immunoreactivity of serum” value under setting [14] is recorded as “b (b = borderline response (00/background ?2.5-2.9).)”. Also, the “immunoreactivity of serum” value under setting [15] is on record as “b (b = borderline response (00/background ?2.5-2.9).)”.

Take DICKKYKIWMHVDAAWGGGLLMS [Peptide 24]: the “immunoreactivity by both control and patient sera” value was “often positive”. The “immunoreactivity of serum” value under setting [1] is reported as “X (X = positive for immunoreactivity as defined by 00/background^3.0)”. For the same sequence, the “immunoreactivity of serum” value under setting [2] is recorded as “X (X = positive for immunoreactivity as defined by 00/background^3.0)”. In addition, the “immunoreactivity of serum” value under setting [3] is recorded as “X (X = positive for immunoreactivity as defined by 00/background^3.0)”. Also, under setting [4], the “immunoreactivity of serum” value is on record as “X (X = positive for immunoreactivity as defined by 00/background^3.0)”. The “immunoreactivity of serum” value under setting [5] was “X (X = positive for immunoreactivity as defined by 00/background^3.0)”. In addition, the “immunoreactivity of serum” value under setting [9] was “X (X = positive for immunoreactivity as defined by 00/background^3.0)”. The “immunoreactivity of serum” value (IDDM At Risk serum 825, 1/300 dilution) was “X (X = positive for immunoreactivity as defined by 00/background^3.0)”. Besides, the “immunoreactivity of serum” value under setting [6] is given as “X (X = positive for immunoreactivity as defined by 00/background^3.0)”. Also, the “immunoreactivity of serum” value under setting [7] is “X (X = positive for immunoreactivity as defined by 00/background^3.0)”. The “immunoreactivity of serum” value (Pre-IDDM serum B.Y. (1), 1/300 dilution) is given as “X (X = positive for immunoreactivity as defined by 00/background^3.0)”. For the same sequence, where the note is “Pre-IDDM serum B.Y. (2), 1/300 dilution”, the “immunoreactivity of serum” value is on record as “X (X = positive for immunoreactivity as defined by 00/background^3.0)”. Under setting [10], the “immunoreactivity of serum” value is on record as “X (X = positive for immunoreactivity as defined by 00/background^3.0)”. In addition, the “immunoreactivity of serum” value (Pre-IDDM serum J.B. (1), 1/300 dilution) is “X (X = positive for immunoreactivity as defined by 00/background^3.0)”. In addition, the “immunoreactivity of serum” value under setting [11] is “X (X = positive for immunoreactivity as defined by 00/background^3.0)”. In addition, the “immunoreactivity of serum” value under setting [12] was “X (X = positive for immunoreactivity as defined by 00/background^3.0)”. The “immunoreactivity of serum” value under setting [13] is reported as “X (X = positive for immunoreactivity as defined by 00/background^3.0)”. For the setting “Pre-IDDM serum R.S. (1), 1/300 dilution”, the “immunoreactivity of serum” value is “X (X = positive for immunoreactivity as defined by 00/background^3.0)”. For the same sequence, the “immunoreactivity of serum” value under setting [14] is on record as “X (X = positive for immunoreactivity as defined by 00/background^3.0)”. The “immunoreactivity of serum” value (control serum 1688, 1/300 dilution) is “X (X = positive for immunoreactivity as defined by 00/background^3.0)”. In addition, the “immunoreactivity of serum” value (control serum 4380, 1/300 dilution) was “X (X = positive for immunoreactivity as defined by 00/background^3.0)”. Besides, the “immunoreactivity of serum” value under setting [8] is “X (X = positive for immunoreactivity as defined by 00/background^3.0)”. Also, the “immunoreactivity of serum” value (control serum 5748, 1/300 dilution) was “X (X = positive for immunoreactivity as defined by 00/background^3.0)”. Also, for the setting “control serum A.P., 1/300 dilution”, the “immunoreactivity of serum” value was “X (X = positive for immunoreactivity as defined by 00/background^3.0)”. The “immunoreactivity of serum” value (control serum FA2, 1/300 dilution) is “X (X = positive for immunoreactivity as defined by 00/background^3.0)”. The “immunoreactivity of serum” value (control serum FA8, 1/300 dilution) is recorded as “X (X = positive for immunoreactivity as defined by 00/background^3.0)”. The “immunoreactivity of serum” value (control serum FA9, 1/300 dilution) is on record as “X (X = positive for immunoreactivity as defined by 00/background^3.0)”. The “immunoreactivity of serum” value (control serum FA11, 1/300 dilution) is “X (X = positive for immunoreactivity as defined by 00/background^3.0)”. Further, the “immunoreactivity of serum” value (control serum FA12, 1/300 dilution) is listed as “X (X = positive for immunoreactivity as defined by 00/background^3.0)”. Moreover, for the setting “control serum H.B., 1/300 dilution”, the “immunoreactivity of serum” value was “X (X = positive for immunoreactivity as defined by 00/background^3.0)”. Also, the “immunoreactivity of serum” value (control serum P.T., 1/300 dilution) is “X (X = positive for immunoreactivity as defined by 00/background^3.0)”. Under setting [15], the “immunoreactivity of serum” value is given as “X (X = positive for immunoreactivity as defined by 00/background^3.0)”.

Regarding DMVGLAADWLTSTANTNMFT [Peptide 13], the “immunoreactivity of serum” value under setting [5] was “b (b = borderline response (00/background ?2.5-2.9).)”.

On to ERANSVTWNPHKMMGVPLQC [Peptide 26], for which the “number of IDDM” value is listed as 1. Moreover, the “immunoreactivity of serum” value under setting [2] is reported as “X (X = positive for immunoreactivity as defined by 00/background^3.0)”. The “immunoreactivity of serum” value under setting [8] was “b (b = borderline response (00/background ?2.5-2.9).)”.

With EYGTTTMVSYQPLGDKVNFFR [Peptide 36], the “number of IDDM” value is 1. Further, under setting [3], the “immunoreactivity of serum” value is on record as “X (X = positive for immunoreactivity as defined by 00/background^3.0)”.
